Target: T1, human mGluR2 receptor (Homo sapiens, UniProt Q14416)
T1 construct: expressed in transfected cells
Test: [35S]-GTPγS binding assay of mGluR2 receptor activation
Type: biochemical
Settings: not given
Experimental: A [^35S]-GTPγS binding assay was used to functionally assay mGluR2 receptor activation. The allosteric activator activity of compounds at the human mGluR2 receptor were measured using a [^35S]-GTPγS binding assay with membranes prepared from CHO cells which stably express the human mGluR2. The assay is based upon the principle that agonists bind to G-protein coupled receptors to stimulate GDP-GTP exchange at the G-protein. Since [^35S]-GTPγS is a non-hydrolyzable GTP analog, it can be used to provide an index of GDP-GTP exchange and, thus, receptor activation. The GTPγS binding assay therefore provides a quantitative measure of receptor activation.
Membranes were prepared from CHO cells stably transfected with human mGluR2. Membranes (30 μg protein) were incubated with test compound (3 nM to 300 μM) for 15 minutes at room temperature prior to the addition of 1 μM glutamate, and incubated for 30 min at 30° C. in 500 μl assay buffer (20 mM HEPES, 100 mM NaCl, 10 mM MgCl2), containing 30 μM GDP and 0.1 nM [^35S]-GTPγS (1250 Ci/mmol). Reactions were carried out in triplicate in 2 ml polypropylene 96-well plates. Reactions were terminated by vacuum filtration using a Packard 96-well harvester and Unifilter-96, GF/B filter microplates. The filter plates were washed 4×1.5 ml with ice-cold wash buffer (10 mM sodium phosphate buffer, pH 7.4). The filter plates were dried and 35 μl of scintillation fluid (Microscint 20) was added to each well. The amount of radioactivity bound was determined by counting plates on the Packard TopCount. Data was analyzed using GraphPad Prism, and EC50 and Emax values (relative to the maximum glutamate effect) were calculated using non-linear regression.

T1 sequence (Q14416 19-872): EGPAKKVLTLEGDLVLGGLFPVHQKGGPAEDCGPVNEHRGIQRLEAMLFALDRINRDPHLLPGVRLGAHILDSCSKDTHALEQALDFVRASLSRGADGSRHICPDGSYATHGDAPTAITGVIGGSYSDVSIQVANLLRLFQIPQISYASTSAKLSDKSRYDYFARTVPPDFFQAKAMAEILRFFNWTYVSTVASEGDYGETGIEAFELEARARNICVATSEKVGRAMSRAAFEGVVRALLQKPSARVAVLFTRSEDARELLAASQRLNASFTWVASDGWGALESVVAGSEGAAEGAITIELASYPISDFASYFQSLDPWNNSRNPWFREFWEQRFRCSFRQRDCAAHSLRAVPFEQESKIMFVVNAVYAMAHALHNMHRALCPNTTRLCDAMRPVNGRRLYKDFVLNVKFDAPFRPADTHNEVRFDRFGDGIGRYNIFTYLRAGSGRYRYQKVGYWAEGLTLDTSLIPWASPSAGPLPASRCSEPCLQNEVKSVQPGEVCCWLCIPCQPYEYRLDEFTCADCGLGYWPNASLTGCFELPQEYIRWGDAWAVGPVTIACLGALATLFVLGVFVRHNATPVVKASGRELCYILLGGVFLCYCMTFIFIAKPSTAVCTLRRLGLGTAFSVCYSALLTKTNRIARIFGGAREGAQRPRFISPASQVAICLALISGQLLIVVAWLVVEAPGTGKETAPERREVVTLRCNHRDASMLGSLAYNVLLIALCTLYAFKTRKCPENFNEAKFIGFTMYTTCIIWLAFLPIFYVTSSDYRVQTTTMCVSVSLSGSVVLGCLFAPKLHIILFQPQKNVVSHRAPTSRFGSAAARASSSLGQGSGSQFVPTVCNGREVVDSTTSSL

EC50 [nM] | Structure (SMILES)
140 | Cc1cc(CC2CCN(Cc3cccnc3)CC2)cc2c1C(=O)N(Cc1ccc(OC(F)(F)F)cc1)C2 [Example 169, 7-methyl-5-(1-pyridin-3-ylmethyl-piperidin-4-ylmethyl)-2-(4-trifluorometh-oxy-benzyl)-2,3-dihydro-isoindol-1-one]
110 | Cc1cc(-c2nc(CN3CCOCC3)no2)cc2c1C(=O)N(Cc1ccc(OC(F)(F)F)cc1)C2 [Example 178, 7-Methyl-5-(3-morpholin-4-ylmethyl-[1,2,4]oxadiazol-5-yl)-2-(4-trifluorometh-oxy-benzyl)-2,3-dihydro-isoindol-1-one]
6400 | Cc1cc(-c2nnc(CN(C)C)o2)cc2c1C(=O)N(Cc1ccc(OC(F)(F)F)cc1)C2 [Example 175, 5-(5-Dimethylamino-methyl-[1,3,4]oxadiazol-2-yl)-7-methyl-2-(4-trifluorometh-oxy-benzyl)-2,3-dihydro-isoindol-1-one]
80 | Cc1cc(CC2CCN(Cc3ccncc3)CC2)cc2c1C(=O)N(Cc1ccc(OC(F)(F)F)cc1)C2 [Example 170, 7-methyl-5-(1-pyridin-4-ylmethyl-piperidin-4-ylmethyl)-2-(4-trifluorometh-oxy-benzyl)-2,3-dihydro-isoindol-1-one]
140 | Cc1cc(CN2CCN(c3ccccn3)CC2)cc2c1C(=O)N(Cc1ccc(OC(F)(F)F)cc1)C2 [Example 167, 7-Methyl-5-(4-pyridin-2-yl-piperazin-1-ylmethyl)-2-(4-trifluorometh-oxy-benzyl)-2,3-dihydro-isoindol-1-one]
520 | CCN1CCC(Cc2cc(C)c3c(c2)CN(Cc2ccc(OC(F)(F)F)cc2)C3=O)CC1 [Example 166, 5-(1-Ethyl-piperidin-4-ylmethyl)-7-methyl-2-(4-trifluorometh-oxy-benzyl)-2,3-dihydro-isoindol-1-one]
1510 | CCCN1CCC(Cc2cc(C)c3c(c2)CN(Cc2ccc(OC(F)(F)F)cc2)C3=O)CC1 [Example 172, 7-methyl-5-(1-propyl-piperidin-4-ylmethyl)-2-(4-trifluorometh-oxy-benzyl)-2,3-dihydro-isoindol-1-one]
40 | Cc1cc(CC2CCN(Cc3ccc(C#N)cc3)CC2)cc2c1C(=O)N(Cc1ccc(OC(F)(F)F)cc1)C2 [Example 171, 4-{4-[7-methyl-1-oxo-2-(4-trifluorometh-oxy-benzyl)-2,3-dihydro-1H-isoindol-5-ylmethyl]-piperidin-1-ylmethyl}-benzonitrile]

Same assay, conditions: membranes from CHO cells stably expressing human mGluR2; 1 μM glutamate

Structure (SMILES) | EC50 [nM]
Cc1cc(-c2ccncc2)cc2c1C(=O)N(Cc1ccc(Cl)cc1)C2 [Example 97, 2-(4-chlorobenzyl)-7-methyl-5-pyridin-4-yl-2,3-dihydroisoindol-1-one] | 300
O=C1c2c(Cl)cc(N3CCN(c4ccncc4)CC3)cc2CN1Cc1ccc(OC(F)(F)F)cc1 [Example 145, 7-Chloro-5-(4-pyridin-4-yl-piperazin-1-yl)-2-(4-trifluoromethoxy-benzyl)-2,3-dihydro-isoindol-1-one] | 400
O=C(CN1CCN(c2cc(Cl)c3c(c2)CN(Cc2ccc(OC(F)(F)F)cc2)C3=O)CC1)N1CCCC1 [Example 156, 7-Chloro-5-[4-(2-oxo-2-pyrrolidin-1-yl-ethyl)-piperazin-1-yl]-2-(4-trifluoromethoxy-benzyl)-2,3-dihydro-isoindol-1-one] | 320
Cc1cc(N2CCCN(C)CC2)cc2c1C(=O)N(Cc1ccc(OC(F)(F)F)cc1)C2 [Example 113, 7-Methyl-5-(4-methyl-[1,4]-diazepan-1-yl)-2-(4-trifluoromethoxy-benzyl)-2,3-dihydroisoindol-1-one] | 1210
O=C1c2ccc(N3CCC(CCCc4ccccc4)CC3)cc2CN1Cc1ccc(OC(F)(F)F)cc1 [Example 152, 5-[4-(3-Phenyl-propyl)-piperidin-1-yl]-2-(4-trifluoromethoxy-benzyl)-2,3-dihydro-isoindol-1-one] | 510
Cc1cc(CN2CCC(N3CCCCC3)CC2)cc2c1C(=O)N(Cc1ccc(OC(F)(F)F)cc1)C2 [Example 49, 5-[1, 4″]Bipiperidinyl-1″-ylmethyl-7-methyl-2-(4-trifluoromethoxy-benzyl)-2,3-dihydro-isoindol-1-one] | 3250
Cc1cc(-c2ccncc2)cc2c1C(=O)N(Cc1ccc(Oc3ccccc3)cc1)C2 [Example 103, 7-Methyl-2-(4-phenoxy-benzyl)-5-pyridin-4-yl-2,3-dihydro-isoindol-1-one] | 40
O=C1c2ccc(N3CCN(c4ccncc4)CC3)cc2CN1Cc1ccc(OC(F)(F)F)cc1 [Example 149, 5-(4-Pyridin-4-yl-piperazin-1-yl)-2-(4-trifluoromethoxy-benzyl)-2,3-dihydro isoindol-1-one] | 9830
COc1cc(C2=CCN(C)CC2)cc2c1C(=O)N(Cc1ccc(OC(F)(F)F)cc1)C2 [Example 90, 7-Methoxy-5-(1-methyl-1,2,3,6-tetrahydro-pyridin-4-yl)-2-(4-trifluoromethoxy-benzyl)-2,3-dihydro-isoindol-1-one] | 3820
CCCN1CCN(c2ccc3c(c2)CN(Cc2ccc(OC(F)(F)F)cc2)C3=O)CC1 [Example 146, 5-(4-Propyl-piperazin-1-yl)-2-(4-tri-fluoromethoxy-benzyl)-2,3-dihydro-isoindol-1-one] | 4420
O=C1c2c(Cl)cc(N3CCOCC3)cc2CN1Cc1ccc(OC(F)(F)F)cc1 [Example 155, 7-Chloro-5-morpholin-4-yl-2-(4-trifluoromethoxy-benzyl)-2,3-dihydro-isoindol-1-one] | 520
O=C1c2c(Cl)cc(N3CCN4CCCC4C3)cc2CN1Cc1ccc(OC(F)(F)F)cc1 (centres unmarked) [Example 132, 7-Chloro-5-(hexahydro-pyrrolo[1,2-a]pyrazin-2-yl)-2-(4-trifluoromethoxy-benzyl)-2,3-dihydro-isoindol-1-one] | 480
CCN1CCN(c2cc(C)c3c(c2)CN(Cc2ccc(OC(F)(F)F)cc2)C3=O)CC1 [Example 112, 5-(4-Ethylpiperazin-1-yl)-7-methyl-2-(4-trifluoromethoxy-benzyl)-2,3-dihydroisoindol-1-one] | 680
CN(C)C1CCN(c2cc(Cl)c3c(c2)CN(Cc2ccc(Cl)cc2)C3=O)C1 (centres unmarked) [Example 135, 7-Chloro-2-(4-chloro-benzyl)-5-(3-dimethylamino-pyrolidin-1-yl)-2,3-dihydro-isoindol-1-one] | 610
COc1cc(N2CCCN(C)CC2)cc2c1C(=O)N(Cc1ccc(OC(F)(F)F)cc1)C2 [Example 128, 7-Methoxy-5-(4-methyl-[1,4]-diazepan-1-yl)-2-(4-triflouoromethoxy-benzyl)-2,3-dihydro-isoindol-1-one] | 5040
O=C1c2ccc(N3CCOCC3)cc2CN1Cc1ccc(OC(F)(F)F)cc1 [Example 150, 5-Morpholin-4-yl-2-(4-trifluoromethoxy-benzyl)-2,3-dihydro-isoindol-1-one] | 8760

Second part, the molecule after the results:

EC50 [nM] | Structure (SMILES)
100 | Cc1cc(-c2cccnc2)cc2c1C(=O)N(Cc1ccc(Cl)cc1)C2 [Example 98, 2-(4-chlorobenzyl)-7-methyl-5-pyridin-3-yl-2,3-dihydroisoindol-1-one]
340 | Cc1cc(CNCCCc2ccccc2)cc2c1C(=O)N(Cc1ccc(OC(F)(F)F)cc1)C2 [Example 47, 7-Methyl-5-[(3-phenyl-propylamino)-methyl]-2-(4-trifluoromethoxy-benzyl)-2,3-dihydro-isoindol-1-one]
1800 | COCCCNCc1cc(C)c2c(c1)CN(Cc1ccc(OC(F)(F)F)cc1)C2=O [Example 51, 5-[(3-Methoxy-propylamino)-methyl]-7-methyl-2-(4-trifluoromethoxy-benzyl)-2,3-dihydro-isoindol-1-one]
20 | Cc1cc(CN2CCC(CCCc3ccc(-n4ccnc4)cc3)CC2)cc2c1C(=O)N(Cc1ccc(OC(F)(F)F)cc1)C2 [Example 55, 5-{4-[3-(4-Imidazol-1-yl-phenyl)-propyl]-piperidin-1-ylmethyl}-7-methyl-2-(4-trifluoromethoxy-benzyl)-2,3-dihydroisoindol-1-one]
910 | Cc1cc(CNCc2cccnc2)cc2c1C(=O)N(Cc1ccc(OC(F)(F)F)cc1)C2 [Example 41, 7-Methyl-5-{[(pyridine-3-ylmethyl)-amino]-methyl}-2-(4-trifluoromethoxy-benzyl)-2,3-dihydro-isoindol-1-one]
290 | Cc1cc(-c2cccc(CN(C)C)c2)cc2c1C(=O)N(Cc1ccc(OC(F)(F)F)cc1)C2 [Example 87, 5-(3-Dimethylamino-methyl-phenyl)-7-methyl-2-(4-trifluoromethoxy-benzyl)-2,3-dihydro-isoindol-1-one]
90 | O=C1c2c(Cl)cc(-c3ccncc3)cc2CN1Cc1ccc(OC(F)(F)F)cc1 [Example 102, 7-Chloro-5-pyridin-4-yl-2-(4-trifluoromethoxy-benzyl)-2,3-dihydro-isoindol-1-one]
2400 | Cc1cc(CN2CC=CC2)cc2c1C(=O)N(Cc1ccc(OC(F)(F)F)cc1)C2 [Example 39, 5-(2,5-Dihydro-pyrrol-1-ylmethyl)-7-methyl-2-(4-trifluoromethoxy-benzyl)-2,3-dihydro-isoindol-1-one]

From patent publication US7968570B2, “Isoindolone compounds and their use as metabotropic glutamate receptor potentiators” (AstraZeneca AB, priority 2004, dated 2011)
